The source of these data is patent publication US20240336624A1, “PARP INHIBITOR CONTAINING PIPERAZINE STRUCTURE, PREPARATION METHOD THEREFOR AND PHARMACEUTICAL USE THEREOF” (WIGEN BIOMEDICINE TECHNOLOGY (SHANGHAI) CO., LTD., priority 2021, published 2024).

Bounds are passed on as bounds.

The target of the first experiment is PARP-1 enzyme (Homo sapiens, UniProt P09874). Kind of experiment: In vitro inhibition of activity of poly (ADP-ribose) polymerase [PARP-1 enzyme], histone-coated plate chemiluminescence. Format: biochemical. The settings on record: class symbols; read-out: Inhibitory activity against PARP-1 (IC50). As to the method: Example 69. Experiment on In Vitro Inhibition of Activity of Poly (ADP-Ribose) Polymerase [PARP-1 Enzyme] with Compounds of the Present Invention
PARP-1 enzyme, sequence (P09874 whole entry): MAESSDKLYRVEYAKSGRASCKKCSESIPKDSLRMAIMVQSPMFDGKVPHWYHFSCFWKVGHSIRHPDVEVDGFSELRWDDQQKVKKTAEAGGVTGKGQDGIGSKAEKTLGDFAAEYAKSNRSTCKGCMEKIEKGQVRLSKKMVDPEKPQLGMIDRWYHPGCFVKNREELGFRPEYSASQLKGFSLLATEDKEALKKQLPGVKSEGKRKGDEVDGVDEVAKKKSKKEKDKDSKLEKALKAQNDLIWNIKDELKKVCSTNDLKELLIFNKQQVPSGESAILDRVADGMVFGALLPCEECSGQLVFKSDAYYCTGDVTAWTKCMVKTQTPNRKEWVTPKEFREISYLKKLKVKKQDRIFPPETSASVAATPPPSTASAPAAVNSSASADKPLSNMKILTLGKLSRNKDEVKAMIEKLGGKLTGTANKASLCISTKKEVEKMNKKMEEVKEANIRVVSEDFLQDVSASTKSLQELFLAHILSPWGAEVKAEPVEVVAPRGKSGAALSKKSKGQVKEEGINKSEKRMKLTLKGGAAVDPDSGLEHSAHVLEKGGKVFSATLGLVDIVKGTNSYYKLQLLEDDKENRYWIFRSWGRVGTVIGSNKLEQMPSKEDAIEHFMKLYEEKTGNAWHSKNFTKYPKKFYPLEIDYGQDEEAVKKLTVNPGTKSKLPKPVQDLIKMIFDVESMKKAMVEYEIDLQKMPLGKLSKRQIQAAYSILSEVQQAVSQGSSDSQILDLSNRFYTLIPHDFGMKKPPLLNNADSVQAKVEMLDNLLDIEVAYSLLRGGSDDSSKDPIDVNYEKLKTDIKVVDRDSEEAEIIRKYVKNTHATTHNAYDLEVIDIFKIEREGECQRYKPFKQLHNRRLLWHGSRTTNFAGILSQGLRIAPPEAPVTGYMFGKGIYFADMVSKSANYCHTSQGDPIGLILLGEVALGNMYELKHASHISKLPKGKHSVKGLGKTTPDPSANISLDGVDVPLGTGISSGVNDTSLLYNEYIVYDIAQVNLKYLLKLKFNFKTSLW
The histones were coated onto 384-well plates at 4° C. overnight, rinsed three times with a PBST buffer, and blocked at room temperature for 1 h. After 1 h, the histones were rinsed three more times with PBST, DMSO or a serially diluted compound, and a mixture containing PARP-1 enzymes and DNA was added, and the resulting mixture was incubated at 25° C. for 10 min. After 10 min NAD^+ was added to start the reaction. After reacting at room temperature for 60 min, the reaction solution was rinsed three times with PBST, and the level of poly/mono-ADP ribose on the histones was detected by the addition of a poly/mono-ADP ribose antibody conjugated with horseradish peroxidase ([…]). After incubation at room temperature for 1 h, HRP substrates ECL A and B were added, and Envision quantified chemiluminescence. The inhibition percentages and IC50 of the compounds were calculated compared to the control group DMSO.
With `CCc1cc2ncc(CN3CCN(c4ccc(C(=O)NC5CC(F)C5)nc4)CC3)cc2[nH]c1=O` (stereo not drawn) [Compound 12], the IC50 is at most 10 nM. Same read-out and setting: as for `CCc1nc2ccc(CN3CCN(c4ccc(C(=O)NC5CC5)nc4C(F)F)CC3)cc2[nH]c1=O` [Compound 24], the figure is at most 10 nM. On the same count and under the same terms, to `CCC1Nc2ncc(CN3CCN(c4ccc(C(=O)NC)nc4)CC3)cc2NC1=O` (stereo not drawn) [Compound 57] belongs at most 10 nM; to `CCc1cc2ncc(C(C)N3CCN(c4ccc(C(=O)NC)nc4C(F)F)CC3)cc2[nH]c1=O` (stereo not drawn) [Compound 43], at most 10 nM. On the same count and under the same terms, to `CCc1cc2ncc(CN3CCN(c4ccc(C(=O)NC)nc4)CC3)nc2[nH]c1=O` [Compound 44] belongs at most 10 nM; to `CNC(=O)c1cnc(N2CCN(Cc3cnc4cc(C5CC5)c(=O)[nH]c4c3)CC2)cn1` [Compound 65], 10 to 50 nM.

As to `CCc1cc2ncc(CN3CCN(c4ccc(C(=O)NC5CC5)nn4)CC3)cc2[nH]c1=O` [Compound 33], the half-inhibitory concentration (IC50) is at most 10 nM.

Take `CCc1nc2ccc(CN3CCN(c4ccc(C(=O)NC5CCC5)nc4)CC3)cc2[nH]c1=O` [Compound 15]: the IC50 is at most 10 nM. Still for that read-out and setting: as for `CCc1cc2ccc(CN3CCN(c4ccc(C(=O)NC)nc4F)CC3)nc2[nH]c1=O` [Compound 54], the figure is at most 10 nM; as for `CCc1cc2ncc(CN3CCN(c4ccc(C(=O)NC5CC5)nc4C(F)F)CC3)cc2[nH]c1=O` [Compound 9], 10 to 50 nM.

With `CCC1C(=O)Nc2cc(CN3CCN(c4ccc(C(=O)NC)nc4)CC3)cnc2N1C` (stereo not drawn) [Compound 58], the IC50 is at most 10 nM. For the compound `O=C(NC1CC1)c1ccc(N2CCN(Cc3cnc4cc(C5CC5)c(=O)[nH]c4c3)CC2)cn1` [Compound 62], the IC50 fell in the range of 10 to 50 nM. The same measure, in the same setting: to `O=C(NC1CC1)c1ccc(N2CCN(Cc3cnc4nc(C5CC5)c(=O)[nH]c4c3)CC2)cn1` [Compound 64] belongs at most 10 nM; to `CCc1cc2ncc(CN3CCN(c4ccc(C(=O)NC5CC5)nc4)CC3)nc2[nH]c1=O` [Compound 49], at most 10 nM. On the same count and under the same terms, as for `CCc1cc2ncc(CN3CCN(c4ccc(C(=O)NC5CC5)nc4F)CC3)cc2[nH]c1=O` [Compound 7], the figure is 10 to 50 nM; as for `CCC1Cc2ncc(CN3CCN(c4ccc(C(=O)NC5CC5)nc4)CC3)cc2NC1=O` (stereo not drawn) [Compound 60], 10 to 50 nM. The same measure, in the same setting: as for `CCc1cc2ncc(CN3CCN(c4cnc(C(=O)NC5CC5)nc4C(F)F)CC3)cc2[nH]c1=O` [Compound 34], the figure is at most 10 nM; as for `CNC(=O)c1ncc(N2CCN(Cc3cnc4cc(C5CC5)c(=O)[nH]c4c3)CC2)cn1` [Compound 66], 10 to 50 nM; as for `CCc1cc2ncc(C(C)N3CCN(c4cnc(C(=O)NC5CC5)nc4)CC3)cc2[nH]c1=O` (stereo not drawn) [Compound 35], at most 10 nM.

On to `CCc1nc2ccc(CN3CCN(c4ccc(C(=O)NC)nc4F)CC3)nc2[nH]c1=O` [Compound 48], for which the IC50 is at most 10 nM. As to `O=C(NC1CC1)c1ccc(N2CCN(Cc3ccc4nc(CC(F)F)c(=O)[nH]c4c3)CC2)cn1` [Compound 17], the IC50 is at most 10 nM.

With `CCc1nc2ccc(CN3CCN(c4ccc(C(=O)NC)nc4)CC3)nc2[nH]c1=O` [Compound 4], the half-inhibitory concentration (IC50) was at most 10 nM. Still for that read-out and setting: as for `CCc1cc2ncc(CN3CCN(c4ccc(C(=O)NC5CC(F)(F)C5)nc4)CC3)cc2[nH]c1=O` [Compound 13], the figure is at most 10 nM; as for `CCc1cc2ncc(CN3CCN(c4ccc(C(=O)NC)nc4C(F)F)CC3)nc2[nH]c1=O` [Compound 50], at most 10 nM. Consider `CCC1Oc2ncc(CN3CCN(c4ccc(C(=O)NC5CC5)nc4)CC3)cc2NC1=O` (stereo not drawn) [Compound 55], for which the IC50 was 10 to 50 nM.

For the compound `CCc1cc2ncc(CN3CCN(c4cnc(C(=O)NC5CC5)nc4)CC3)cc2[nH]c1=O` [Compound 32], the IC50 fell in the range of 10 to 50 nM. Same read-out and setting: to `O=C(NC1CC1)c1ccc(N2CCN(Cc3ccc4nc(CCF)c(=O)[nH]c4c3)CC2)cn1` [Compound 16] belongs at most 10 nM. The same measure, in the same setting: as for `CCc1cc2ncc(CN3CCN(c4cnc(C(=O)NC)nc4)CC3)cc2[nH]c1=O` [Compound 2], the figure is at most 10 nM; as for `CCc1cc2ncc(CN3CCN(c4cnc(C(=O)NC5CC(F)C5)cn4)CC3)cc2[nH]c1=O` (stereo not drawn) [Compound 38], 10 to 50 nM. Still for that read-out and setting: as for `CCc1nc2ccc(C(C)N3CCN(c4ccc(C(=O)NC5CC5)nc4)CC3)cc2[nH]c1=O` (stereo not drawn) [Compound 19], the figure is at most 10 nM; as for `CCc1cc2ncc(CN3CCN(c4cnc(C(=O)NC5CC5)cn4)CC3)cc2[nH]c1=O` [Compound 31], 10 to 50 nM. For the compound `CCc1cc2ccc(CN3CCN(c4ccc(C(=O)NC)nc4)CC3)nc2[nH]c1=O` [Compound 45], the IC50 was at most 10 nM. Same read-out and setting: as for `CCc1cc2ncc(C(C)N3CCN(c4ccc(C(=O)NC)nc4F)CC3)cc2[nH]c1=O` (stereo not drawn) [Compound 41], the figure is 10 to 50 nM; as for `CCc1nc2ncc(CN3CCN(c4ccc(C(=O)NC5CC5)nc4C(F)F)CC3)cc2[nH]c1=O` [Compound 28], 10 to 50 nM.

Turning to `CCc1cc2ncc(CN3CCN(c4cnc(C(=O)NC5CC5)nc4F)CC3)cc2[nH]c1=O` [Compound 36], the IC50 is at most 10 nM.

For the compound `CCc1nc2ccc(CN3CCN(c4ccc(C(=O)NC5CC5)nc4F)CC3)cc2[nH]c1=O` [Compound 18], the IC50 is at most 10 nM. Still for that read-out and setting: as for `CCc1nc2ccc(CN3CCN(c4ccc(C(=O)NC)nc4C)CC3)nc2[nH]c1=O` [Compound 47], the figure is at most 10 nM; as for `CCc1nc(C(=O)NC2CC2)ccc1N1CCN(Cc2ccc3nc(CC)c(=O)[nH]c3c2)CC1` [Compound 23], at most 10 nM; as for `CCc1nc2ccc(CN3CCN(c4ccc(C(=O)NC5CC5)nc4)CC3)nc2[nH]c1=O` [Compound 46], at most 10 nM. Same read-out and setting: as for `CCc1nc2ccc(CN3CCN(c4ccc(C(=O)NC5CC5)nc4)CC3)cc2[nH]c1=O` [Compound 14], the figure is at most 10 nM; as for `CCC1C(=O)Nc2cc(CN3CCN(c4ccc(C(=O)NC5CC5)nc4)CC3)cnc2N1C` (stereo not drawn) [Compound 59], 10 to 50 nM; as for `CCc1nc(C(=O)NC)ccc1N1CCN(C(C)c2cnc3cc(CC)c(=O)[nH]c3c2)CC1` (stereo not drawn) [Compound 40], 10 to 50 nM. Same read-out and setting: as for `CCc1cc2ncc(CN3CCN(c4ccc(C(=O)NC5CC5)nc4C)CC3)cc2[nH]c1=O` [Compound 8], the figure is 10 to 50 nM; as for `CCc1cc2ncc(C(C)N3CCN(c4ccc(C(=O)NC5CC5)nc4)CC3)cc2[nH]c1=O` (stereo not drawn) [Compound 10], 10 to 50 nM; as for `CCC1Oc2ncc(CN3CCN(c4ccc(C(=O)NC)nc4F)CC3)cc2NC1=O` (stereo not drawn) [Compound 56], at most 10 nM.

For `CCc1cc2ccc(CN3CCN(c4ccc(C(=O)NC)nc4C(F)F)CC3)nc2[nH]c1=O` [Compound 53], the IC50 lay in the range of 10 to 50 nM. Same read-out and setting: as for `CCc1nc2ncc(CN3CCN(c4ccc(C(=O)NC5CC5)nc4)CC3)cc2[nH]c1=O` [Compound 26], the figure is at most 10 nM; as for `CCc1cc2ncc(C(C)N3CCN(c4ccc(C(=O)NC5CC5)nc4)CC3)cc2[nH]c1=O` (stereo not drawn) [Compound 42], 10 to 50 nM; as for `CCc1nc2ccc(CN3CCN(c4ccc(C(=O)NC5CC(F)C5)nc4)CC3)cc2[nH]c1=O` (stereo not drawn) [Compound 21], at most 10 nM. The same measure, in the same setting: as for `CCc1cc2ncc(CN3CCN(c4cnc(C(=O)NC5CC(F)(F)C5)nc4)CC3)cc2[nH]c1=O` [Compound 39], the figure is 10 to 50 nM; as for `CCc1cc2ncc(CN3CCN(c4ccc(C(=O)NC)nc4F)CC3)nc2[nH]c1=O` [Compound 51], 10 to 50 nM; as for `CCc1cc2ncc(CN3CCN(c4ccc(C(=O)NC5CCC5)nc4)CC3)cc2[nH]c1=O` [Compound 6], over 50 nM.

As for `CCc1nc2ncc(CN3CCN(c4ccc(C(=O)NC5CC5)nc4F)CC3)cc2[nH]c1=O` [Compound 27], the IC50 lay in the range of 10 to 50 nM. Still for that read-out and setting: as for `CNC(=O)c1ccc(N2CCN(Cc3cnc4cc(C5CC5)c(=O)[nH]c4c3)CC2)nn1` [Compound 67], the figure is at most 10 nM. Consider `CCc1cc2ccc(CN3CCN(c4ccc(C(=O)NC5CC5)nc4)CC3)nc2[nH]c1=O` [Compound 52], for which the IC50 lay within 10 to 50 nM. Turning to `CCc1cc2ncc(C(C)N3CCN(c4ccc(C(=O)NC)nc4)CC3)cc2[nH]c1=O` (stereo not drawn) [Compound 3], the half-maximal inhibitory concentration (IC50) is at most 10 nM. On the same count and under the same terms, as for `CCc1cc2ncc(CN3CCN(c4ccc(C(=O)NC5CC5F)nc4)CC3)cc2[nH]c1=O` (stereo not drawn) [Compound 11], the figure is at most 10 nM; as for `CCc1cc2ncc(CN3CCN(c4cnc(C(=O)NC)cn4)CC3)cc2[nH]c1=O` [Compound 29], 10 to 50 nM. The same measure, in the same setting: as for `CCc1nc2ccc(CN3CCN(c4ccc(C(=O)NC5CC5)nc4C)CC3)cc2[nH]c1=O` [Compound 25], the figure is at most 10 nM; as for `CCc1cc2ncc(CN3CCN(c4ccc(C(=O)NC5CC5F)nn4)CC3)cc2[nH]c1=O` (stereo not drawn) [Compound 37], 10 to 50 nM.

On to `O=C(NC1CC1)c1ccc(N2CCN(Cc3ccc4nc(C5CC5)c(=O)[nH]c4c3)CC2)cn1` [Compound 63], for which the IC50 is at most 10 nM. As for `CNC(=O)c1ccc(N2CCN(C(C)c3cnc4cc(C5CC5)c(=O)[nH]c4c3)CC2)cn1` (stereo not drawn) [Compound 68], the IC50 is at most 10 nM.

For the compound `CCc1nc2ccc(CN3CCN(c4ccc(C(=O)NC5CC(F)(F)C5)nc4)CC3)cc2[nH]c1=O` [Compound 22], the IC50 is at most 10 nM. Still for that read-out and setting: to `CCc1cc2ncc(CN3CCN(c4ccc(C(=O)NC)nn4)CC3)cc2[nH]c1=O` [Compound 30] belongs 10 to 50 nM; to `CCC1C(=O)Nc2cc(CN3CCN(c4ccc(C(=O)NC)nc4F)CC3)cnc2C1(C)C` (stereo not drawn) [Compound 61], at most 10 nM.

Staying with this experiment, now noted: numeric values; read-out: Inhibitory activity against PARP-1 (IC50).
Regarding `CCC1Oc2ncc(CN3CCN(c4ccc(C(=O)NC)nc4)CC3)cc2NC1=O` (stereo not drawn) [Compound 5], the IC50 worked out at 1.7 nM.

As usually defined, the IC50 is the concentration at which inhibition is half-maximal.
